Test results: ChEMBL document CHEMBL1201862, “PubChem BioAssay data set” (2004)
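Test compounds were applied to cells in 96-well plates for 48 hours at 5 doses. Abbreviation: GI50, concentration required for 50% inhibition of growth.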 Active and inactive are the calls of the source. No stated cut-off is given here; in the data, active = GI50 up to about 1.1 µM and inactive = higher. Square brackets hold non-standard residues; d marks the D form. Peptide text beside a SMILES is read from it. * marks the point of attachment. ξ: configuration not given here. ξF = NC(Cc1ccccc1)C(=O)O; Cbz = O=C(OCc1ccccc1)*; Aib = CC(C)(N)C(=O)O

Legend:
Assay in all cases: growth of human tumour cells (NCI), 48 h
[1] = test system: Hs-578T
[2] = test system: PC-3
[3] = test system: SR
[4] = test system: T47D
[5] = test system: SW-620
[6] = test system: HT-29
[7] = test system: KM12
[8] = test system: SF-268
[9] = test system: CCRF-CEM
[10] = test system: SK-MEL-2
[11] = test system: EKVX
[12] = test system: OVCAR-4
[13] = test system: CAKI-1
[14] = test system: HOP-92
[15] = test system: A549
[16] = test system: A498
[17] = test system: MDA-N
[18] = test system: ACHN
[19] = test system: MDA-MB-231

Measured: GI50

CCOC(=O)Cn1nc2ccc(Nc3nc4ccccc4nc3C(=O)OCC)cc2n1
inactive: [1] 33.9 µM | [2] 98.4 µM | [3] > 100 µM | [4] 37.5 µM | [5] > 100 µM | [6] 42 µM | [7] > 100 µM | [8] 47.4 µM | [9] > 100 µM | [10] 54.6 µM | [11] 52 µM | [12] 42.8 µM | [13] > 100 µM | [14] 31.1 µM | [15] > 100 µM | [16] 60.1 µM | [17] > 100 µM | [18] > 100 µM

CC(C)(NC(=O)OCc1ccccc1)C(=O)NC(Cc1ccccc1)C(=O)O (centres undefined) (Cbz-[Aib]-[ξF]-OH)
inactive: [1] > 100 µM | [2] > 100 µM | [4] > 100 µM | [5] > 100 µM | [6] > 100 µM | [7] > 100 µM | [9] > 100 µM | [10] > 100 µM | [12] > 100 µM | [13] > 100 µM | [14] > 100 µM | [15] > 100 µM | [16] > 100 µM | [19] > 100 µM | [17] > 100 µM

O=c1cc(-c2ccccc2)[nH]c2ccc(S)cc12
inactive: [1] 26.2 µM | [2] 20.6 µM | [3] 30.8 µM | [4] 15.1 µM | [5] 38.7 µM | [6] 29 µM | [7] 28.8 µM | [8] 41.9 µM | [9] 22.1 µM | [12] 57.1 µM | [14] 35.8 µM | [15] 52.1 µM | [19] 65.2 µM | [17] > 10 µM | [18] 30.2 µM

COC(=O)CCc1ccc2c(c1)CCC2
inactive: [1] > 100 µM | [2] > 100 µM | [3] > 100 µM | [4] > 100 µM | [5] > 100 µM | [6] > 100 µM | [7] > 100 µM | [8] > 100 µM | [9] > 100 µM | [10] > 100 µM | [12] > 100 µM | [13] > 100 µM | [14] 15.1 µM | [15] > 100 µM | [19] > 100 µM | [17] > 100 µM | [18] > 100 µM

Cc1cc(S(=O)(=O)O)c(NC(=O)c2oc3cc(O)ccc3c(=O)c2C)cc1Cl
inactive: [1] > 100 µM | [2] > 100 µM | [3] > 10 µM | [4] > 100 µM | [5] > 100 µM | [6] > 100 µM | [7] > 100 µM | [8] > 100 µM | [10] > 100 µM | [11] > 100 µM | [12] > 100 µM | [13] > 100 µM | [15] > 100 µM | [19] > 100 µM | [17] > 100 µM | [18] > 100 µM

O=C1C(CO)=C[C@@H](O)[C@H]2O[C@@H]12 [EPOXYDON]
inactive: [1] > 100 µM | [3] > 100 µM | [4] > 100 µM | [5] 37.9 µM | [6] > 100 µM | [7] > 100 µM | [8] > 100 µM | [9] 30.7 µM | [10] > 100 µM | [11] > 100 µM | [12] 17.7 µM | [13] > 100 µM | [14] > 100 µM | [15] 77.3 µM | [16] > 100 µM | [19] > 100 µM | [17] > 100 µM | [18] 90.2 µM

CCOC(=O)c1sc2c(c1OC(=O)c1ccc(Cl)cc1Cl)c(=O)n(-c1ccccc1)c(=S)n2-c1ccccc1
inactive: [1] 7.48 µM | [2] 7.08 µM | [4] > 35.5 µM | [5] 9.64 µM | [6] 8.89 µM | [7] 5.73 µM | [8] 8.02 µM | [9] 3.27 µM | [10] 3.97 µM | [11] 17.1 µM | [12] 40.6 µM | [13] 17.9 µM | [14] 3.49 µM | [15] 8.55 µM | [16] 5.08 µM | [19] 20.9 µM | [17] 22 µM | [18] 4.85 µM

Cn1c2ccccc2c(=NNc2ccc(C(=O)O)cc2)c2ccccc21
inactive: [1] 18.7 µM | [2] 14.1 µM | [3] 13.8 µM | [4] 13.4 µM | [5] 16.1 µM | [6] 13.1 µM | [7] 15.7 µM | [8] 15.8 µM | [9] 15.2 µM | [10] 19.6 µM | [11] 9.25 µM | [12] 12.9 µM | [13] 21.6 µM | [14] 20.5 µM | [15] 14.4 µM | [19] 19.8 µM | [17] 17.7 µM | [18] 15.3 µM

Cc1ccc(C)n2c1nc1ccccc12
inactive: [1] > 100 µM | [2] > 100 µM | [3] > 100 µM | [4] > 100 µM | [5] > 100 µM | [6] 31.9 µM | [7] > 100 µM | [8] > 100 µM | [9] > 100 µM | [11] 62.7 µM | [14] > 100 µM | [15] 33 µM | [16] 1.46 µM | [17] > 100 µM | [18] > 100 µM

Cc1nc2c(Cl)cc(Cl)cc2c2c1CCO2
inactive: [1] > 100 µM | [3] > 100 µM | [4] > 100 µM | [5] > 100 µM | [6] > 100 µM | [7] > 100 µM | [8] > 100 µM | [9] 48.4 µM | [10] > 100 µM | [11] 54 µM | [12] > 100 µM | [13] 23.3 µM | [14] 73.1 µM | [15] > 100 µM | [16] 67.1 µM | [19] > 100 µM | [17] > 100 µM | [18] > 100 µM

C=CCN(c1cc(OC)c2[nH]c(C(=O)OCC)c(C)c2c1[N+](=O)[O-])S(C)(=O)=O
inactive: [1] 17.8 µM | [2] 18 µM | [4] 15.2 µM | [5] 34.3 µM | [6] 18.2 µM | [7] 23.5 µM | [8] 26.4 µM | [9] 26.3 µM | [10] 25.1 µM | [11] 18.5 µM | [12] 32.4 µM | [13] 34 µM | [14] 18.6 µM | [15] 22 µM | [16] 25.8 µM | [19] 11 µM | [17] 18.1 µM | [18] 26.1 µM

CCN(CC)/[N+]([O-])=N/OS(=O)(=O)N(C)C
inactive: [1] > 100 µM | [3] > 100 µM | [4] > 100 µM | [5] > 100 µM | [6] > 100 µM | [7] > 100 µM | [8] > 100 µM | [9] > 100 µM | [11] > 100 µM | [12] > 100 µM | [13] > 100 µM | [14] > 100 µM | [15] > 100 µM | [16] > 100 µM | [19] > 100 µM | [17] > 100 µM | [18] > 100 µM

COc1ccc(/C=C/c2cc(OC)cc(=O)o2)cc1 [YANGONIN]
inactive: [1] 35.5 µM | [2] > 100 µM | [3] > 100 µM | [4] > 100 µM | [5] > 100 µM | [6] > 100 µM | [7] 57.4 µM | [8] 60.1 µM | [9] > 100 µM | [10] 72.1 µM | [11] > 100 µM | [12] > 100 µM | [13] > 100 µM | [14] 45.2 µM | [15] > 100 µM | [19] > 100 µM | [17] 91.6 µM | [18] 61.7 µM

CN(C)CCCn1c(Cc2ccccc2)nc2cc(C(F)(F)F)ccc21
inactive: [1] 45.6 µM | [2] 29 µM | [4] 19.9 µM | [5] 26.1 µM | [6] 20.7 µM | [7] 15.7 µM | [8] 53.8 µM | [9] 19.4 µM | [10] 17.5 µM | [11] 30.1 µM | [12] 18.6 µM | [13] 17.7 µM | [14] 20 µM | [15] 14.7 µM | [16] 15 µM | [19] 22.4 µM | [17] 18.3 µM | [18] 62.8 µM

Nc1ccc(C(=O)c2cn(CCN3CCOCC3)c3ccccc23)c2ccccc12
inactive: [1] 28.2 µM | [2] 36.1 µM | [3] 22.9 µM | [4] 24.4 µM | [5] 30.8 µM | [6] 22.5 µM | [7] 31.1 µM | [8] 32.6 µM | [9] 3.94 µM | [10] 36.6 µM | [11] 21.2 µM | [12] 33 µM | [13] 62.8 µM | [15] 40.9 µM | [16] 65.6 µM | [17] 32.5 µM | [18] 48.9 µM

CC(=O)c1ccc2c(c1)N(CCCN1CCN(CCO)CC1)c1ccccc1C2
inactive: [1] 14.8 µM | [2] 14.3 µM | [4] 12.3 µM | [5] 14.5 µM | [6] 10 µM | [7] 15.5 µM | [8] 17.8 µM | [9] 11.7 µM | [10] 18.3 µM | [11] 17.9 µM | [12] 15.1 µM | [13] 13.6 µM | [14] 12.9 µM | [15] 17.9 µM | [16] 15.7 µM | [19] 13.2 µM | [17] 13 µM | [18] 20.3 µM
